From patent US9232796B2, “Herbicidal compositions comprising 4-amino-3-chloro-5-fluoro-6-(4-chloro-2-fluoro-3-methoxyphenyl) pyridine-2-carboxylic acid or a derivative thereof and acetyl-CoA carboxylase (ACCase) inhibitors” (DOW AGROSCIENCES LLC, priority 2012, dated 2016)

Key:
CYPES = experiment: Example V (second) postemergence foliar-applied ternary mixtures, greenhouse, direct seeded rice weeds; assay type: in vivo, Cyperus esculentus L.
Protocol: The treated plants and control plants were placed in a greenhouse as described above and watered by sub-irrigation to prevent wash-off of the test compounds. After approximately 3 weeks, the condition of the test plants as compared with that of the untreated plants was determined visually and scored on a scale of 0 to 100 percent where 0 corresponds to no injury or growth inhibition and 100 corresponds to complete kill.
Colby's equation was used to determine the herbicidal effects expected from the mixtures (Colby, S. R. 1967. Calculation of the synergistic and antagonistic response of herbicide combinations. Weeds 15:20-22.).
The following equation was used to calculate the expected activity of mixtures containing three active ingredients, A, B, and C: Expected=A+B+C−((A×B+A×C+B×C)/100)+(A×B×C/10000)

SCPMA = experiment: Example VI in-water applied ternary mixtures, greenhouse, transplanted paddy rice weeds; assay type: in vivo
ECHCG = experiment: as above; assay type: in vivo, Echinochloa crus-galli (L.) Beauv.
In short: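 Compound A (SC, acid-equivalent basis) alone or with cyhalofop-R-butyl or metamifop plus a third herbicide, injected into paddy water of greenhouse-grown transplanted rice and weeds at 1st–4th leaf stage (~29/26 °C). Visual injury scored 0–100% after ~3 weeks vs untreated; expected mixture effects by Colby's equation.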

SMILES: COc1c(Cl)ccc(-c2nc(C(=O)OCc3ccccc3)c(Cl)c(N)c2F)c1F [Compound A Benzyl Ester, benzyl ester of 4-amino-3-chloro-5-fluoro-6-(4-chloro-2-fluoro-3-methoxy-phenyl)pyridine-2-carboxylic acid]
- Visual Weed Control (%) - 21 DAA CYPES Obs (CYPES; 8 ae/ha): 70%
- Visual Weed Control (%) - 21 DAA CYPES Obs (CYPES; 8 gae/ha): 70%
- Visual Weed Control (%) - 21 DAA SCPMA Obs (SCPMA; Table 68, 4 gae/ha): 0%
- Visual Weed Control (%) - 21 DAA SCPMA Obs (SCPMA; Table 68, 8 gae/ha): 0%
- Visual Weed Control (%) - 21 DAA SCPMA Obs (SCPMA; Table 68, 16 gae/ha): 0%
- Visual Weed Control (%) - 21 DAA ECHCG Obs (ECHCG; 1.09 gae/ha, first set): 0%
- Visual Weed Control (%) - 21 DAA ECHCG Obs (ECHCG; 1.09 gae/ha, first sub-table): 0%
- Visual Weed Control (%) - 21 DAA ECHCG Obs (ECHCG; 2.19 gae/ha, first set): 7%
- Visual Weed Control (%) - 21 DAA ECHCG Obs (ECHCG; 2.19 gae/ha, first sub-table): 7%
- Visual Weed Control (%) - 21 DAA ECHCG Obs (ECHCG; 4 gae/ha): 25%
- Visual Weed Control (%) - 21 DAA ECHCG Obs (ECHCG; 4 gae/ha, second set): 25%
- Visual Weed Control (%) - 21 DAA ECHCG Obs (ECHCG; 4 gae/ha, second sub-table): 25%
- Visual Weed Control (%) - 21 DAA ECHCG Obs (ECHCG; 8 gae/ha): 45%
- Visual Weed Control (%) - 21 DAA ECHCG Obs (ECHCG; 8 gae/ha, second set): 45%
- Visual Weed Control (%) - 21 DAA ECHCG Obs (ECHCG; 8 gae/ha, second sub-table): 45%
- Visual Weed Control (%) - 21 DAA ECHCG Obs (ECHCG; 16 gae/ha): 99%
- Visual Weed Control (%) - 21 DAA ECHCG Obs (ECHCG; 16 gae/ha, second set): 99%
- Visual Weed Control (%) - 21 DAA ECHCG Obs (ECHCG; 16 gae/ha, second sub-table): 99%
- Visual Weed Control (%) - 21 DAA ECHCG Obs (ECHCG; Table 67, 4 gae/ha, 21 DAA): 25%
- Visual Weed Control (%) - 21 DAA ECHCG Obs (ECHCG; Table 68, 4 gae/ha, 21 DAA): 25%
- Visual Weed Control (%) - 21 DAA ECHCG Obs (ECHCG; Table 68, 8 gae/ha, 21 DAA): 45%
- Visual Weed Control (%) - 21 DAA ECHCG Obs (ECHCG; Table 68, 16 gae/ha, 21 DAA): 99%

SMILES: CCCCOC(=O)[C@@H](C)Oc1ccc(Oc2ccc(C#N)cc2F)cc1 [Cyhalofop-butyl, butyl(2R)-2-[4-(4-cyano-2-fluorophenoxy)phenoxy]propanoate, reference compound]
- Visual Weed Control (%) - 21 DAA CYPES Obs (CYPES; 35 gai/ha): 0%
- Visual Weed Control (%) - 21 DAA SCPMA Obs (SCPMA; Table 68, cyhalofop-butyl 22.5 gai/ha): 0%
- Visual Weed Control (%) - 21 DAA SCPMA Obs (SCPMA; Table 68, cyhalofop-butyl 45 gai/ha): 0%
- Visual Weed Control (%) - 21 DAA ECHCG Obs (ECHCG; 22.5 gai/ha, first set): 0%
- Visual Weed Control (%) - 21 DAA ECHCG Obs (ECHCG; 22.5 gai/ha, first sub-table): 0%
- Visual Weed Control (%) - 21 DAA ECHCG Obs (ECHCG; 45 gai/ha): 30%
- Visual Weed Control (%) - 21 DAA ECHCG Obs (ECHCG; 45 gai/ha, first set): 3%
- Visual Weed Control (%) - 21 DAA ECHCG Obs (ECHCG; 45 gai/ha, first sub-table): 3%
- Visual Weed Control (%) - 21 DAA ECHCG Obs (ECHCG; 45 gai/ha, second set): 30%
- Visual Weed Control (%) - 21 DAA ECHCG Obs (ECHCG; 45 gai/ha, second sub-table): 30%
- Visual Weed Control (%) - 21 DAA ECHCG Obs (ECHCG; Table 67, 45 gai/ha, 21 DAA): 30%
- Visual Weed Control (%) - 21 DAA ECHCG Obs (ECHCG; Table 68, 45 gai/ha, 21 DAA): 30%
